According to PubChem BioAssay AID2060882 (Molecular Pharmacology Branch, DTP, NCI, 2025):

System: 898857-211-R-J1-PDC complex spheroids, growth % test/control
Experiment: Anticancer human tumor 898857-211-R-J1-PDC patient-derived melanoma cell line growth inhibition [RAS]
Conditions: for IC50: curve of first compound; for viability, T/C: stronger effect = lower value
Procedure, shortened: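 Tumour cells grown as complex spheroids with HUVEC endothelial cells and mesenchymal stem cells, treated with RAS pathway inhibitor combinations. Each agent spans half-log steps from near clinical Cmax, or 10 microM where Cmax is unknown.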

[1] = second compound 0.0316 µM, first compound 0.0316 µM
[2] = second compound 0.0316 µM, first compound 0.1 µM
[3] = second compound 0.0316 µM, first compound 0.316 µM
[4] = second compound 0.0316 µM, first compound 1 µM
[5] = second compound 0.0316 µM, first compound 3.16 µM
[6] = second compound 0.0316 µM, first compound 10 µM
[7] = second compound 0.1 µM, first compound 0.0316 µM
[8] = second compound 0.1 µM, first compound 0.1 µM
[9] = second compound 0.1 µM, first compound 0.316 µM
[10] = second compound 0.1 µM, first compound 1 µM
[11] = second compound 0.1 µM, first compound 3.16 µM
[12] = second compound 0.1 µM, first compound 10 µM
[13] = second compound 0.316 µM, first compound 0.0316 µM
[14] = second compound 0.316 µM, first compound 0.1 µM
[15] = second compound 0.316 µM, first compound 0.316 µM
[16] = second compound 0.316 µM, first compound 1 µM
[17] = second compound 0.316 µM, first compound 3.16 µM
[18] = second compound 0.316 µM, first compound 10 µM
[19] = second compound 1 µM, first compound 0.0316 µM
[20] = second compound 1 µM, first compound 0.1 µM
[21] = second compound 1 µM, first compound 0.316 µM
[22] = second compound 1 µM, first compound 1 µM
[23] = second compound 1 µM, first compound 3.16 µM
[24] = second compound 1 µM, first compound 10 µM
[25] = second compound 3.16 µM, first compound 0.0316 µM
[26] = second compound 3.16 µM, first compound 0.1 µM
[27] = second compound 3.16 µM, first compound 0.316 µM
[28] = second compound 3.16 µM, first compound 1 µM
[29] = second compound 3.16 µM, first compound 3.16 µM
[30] = second compound 3.16 µM, first compound 10 µM
[31] = second compound 10 µM, first compound 0.0316 µM
[32] = second compound 10 µM, first compound 0.1 µM
[33] = second compound 10 µM, first compound 0.316 µM
[34] = second compound 10 µM, first compound 1 µM
[35] = second compound 10 µM, first compound 3.16 µM
[36] = second compound 10 µM, first compound 10 µM
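Also: spheroids exposed to compound for seven days before readout.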
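For viability, T/C in this document: 100% = DMSO vehicle control wells.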

CC(=O)OC12COC1CC(O)C1(C)C(=O)C(O)C3=C(C)C(OC(=O)C(O)C(NC(=O)OC(C)(C)C)c4ccccc4)CC(O)(C(OC(=O)c4ccccc4)C21)C3(C)C (centres undefined) + C#Cc1c(F)ccc2cc(O)cc(-c3ncc4c(N5CC6CCC(C5)N6)nc(OCC56CCCN5CC(F)C6)nc4c3F)c12
IC50 (second compound 0.0316 µM): < 31.6 nM
IC50 (second compound 0.1 µM): < 31.6 nM
IC50 (second compound 0.316 µM): < 31.6 nM
IC50 (second compound 1 µM): < 31.6 nM
IC50 (second compound 3.16 µM): < 31.6 nM
IC50 (second compound 10 µM): < 31.6 nM
viability, T/C [1]: 12%
viability, T/C [2]: 12.8%
viability, T/C [3]: 12.1%
viability, T/C [4]: 16%
viability, T/C [5]: 26.6%
viability, T/C [6]: 27.4%
viability, T/C [7]: 13%
viability, T/C [8]: 12.1%
viability, T/C [9]: 14.1%
viability, T/C [10]: 17.1%
viability, T/C [11]: 25.5%
viability, T/C [12]: 21.1%
viability, T/C [13]: 16.4%
viability, T/C [14]: 15.8%
viability, T/C [15]: 12.1%
viability, T/C [16]: 17.7%
viability, T/C [17]: 25.2%
viability, T/C [18]: 21.3%
viability, T/C [19]: 14.2%
viability, T/C [20]: 12.7%
viability, T/C [21]: 12.8%
viability, T/C [22]: 16.5%
viability, T/C [23]: 15.7%
viability, T/C [24]: 24.7%
viability, T/C [25]: 13.3%
viability, T/C [26]: 16.7%
viability, T/C [27]: 16.7%
viability, T/C [28]: 20.4%
viability, T/C [29]: 24.6%
viability, T/C [30]: 27.6%
viability, T/C [31]: 7.03%
viability, T/C [32]: 9%
viability, T/C [33]: 5.98%
viability, T/C [34]: 9.12%
viability, T/C [35]: 7.68%
viability, T/C [36]: 7.34%

CCC(CC)c1cc(NC2CCC(N)C2)n2nccc2n1 (centres undefined) + C#Cc1c(F)ccc2cc(O)cc(-c3ncc4c(N5CC6CCC(C5)N6)nc(OCC56CCCN5CC(F)C6)nc4c3F)c12
IC50 (second compound 0.0316 µM): 1070 nM
IC50 (second compound 0.1 µM): 1210 nM
IC50 (second compound 0.316 µM): 1240 nM
IC50 (second compound 1 µM): 1260 nM
IC50 (second compound 3.16 µM): 1090 nM
IC50 (second compound 10 µM): 32 nM
viability, T/C [1]: 113%
viability, T/C [2]: 105%
viability, T/C [3]: 97.6%
viability, T/C [4]: 54.5%
viability, T/C [5]: 1.81%
viability, T/C [6]: 0.32%
viability, T/C [7]: 119%
viability, T/C [8]: 98.3%
viability, T/C [9]: 101%
viability, T/C [10]: 60%
viability, T/C [11]: 2.14%
viability, T/C [12]: 0.33%
viability, T/C [13]: 99.7%
viability, T/C [14]: 107%
viability, T/C [15]: 93.4%
viability, T/C [16]: 61.6%
viability, T/C [17]: 1.82%
viability, T/C [18]: 0.52%
viability, T/C [19]: 103%
viability, T/C [20]: 121%
viability, T/C [21]: 105%
viability, T/C [22]: 61.9%
viability, T/C [23]: 2.03%
viability, T/C [24]: 0.38%
viability, T/C [25]: 105%
viability, T/C [26]: 97.1%
viability, T/C [27]: 92.5%
viability, T/C [28]: 55%
viability, T/C [29]: 1.64%
viability, T/C [30]: 0.34%
viability, T/C [31]: 52.9%
viability, T/C [32]: 32.4%
viability, T/C [33]: 30%
viability, T/C [34]: 25.2%
viability, T/C [35]: 0.4%
viability, T/C [36]: 0.18%
